Target: BACE1 (Homo sapiens, UniProt P56817)
Assay: cell-based FRET peptide cleavage assay, HEK-293 cells

Chain of BACE1 (P56817 46-501): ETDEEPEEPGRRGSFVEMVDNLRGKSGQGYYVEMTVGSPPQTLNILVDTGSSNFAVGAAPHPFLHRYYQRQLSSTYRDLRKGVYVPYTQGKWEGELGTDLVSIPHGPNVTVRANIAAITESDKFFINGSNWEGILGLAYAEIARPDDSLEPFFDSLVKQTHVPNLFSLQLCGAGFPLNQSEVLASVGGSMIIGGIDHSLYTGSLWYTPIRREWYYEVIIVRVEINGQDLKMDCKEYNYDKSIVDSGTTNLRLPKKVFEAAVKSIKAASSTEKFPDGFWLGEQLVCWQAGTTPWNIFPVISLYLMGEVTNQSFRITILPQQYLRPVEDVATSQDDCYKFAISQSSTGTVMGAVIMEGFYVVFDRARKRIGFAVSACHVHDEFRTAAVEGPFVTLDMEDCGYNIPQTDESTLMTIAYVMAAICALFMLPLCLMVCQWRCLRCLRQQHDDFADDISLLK

IC50	Compound
0.078 µM	COC(=O)C1=C(C)[C@@]2(C)C[C@H]3[C@@]4(C)CCC(=O)C(C)(C)[C@@H]4CC[C@]3(C)[C@@](C)(C1=O)C2=O [compound 1, asperterpene A]
0.059 µM	COC(=O)CC[C@@]1(C)[C@H](C(C)(C)O)CC[C@@]2(C)[C@H]1C[C@@]1(C)C(=O)[C@]2(C)C(=O)C(C(=O)OC)=C1C [compound 2, asperterpene B]

From paper PMC5131395, “Asperterpenes A and B, two unprecedented meroterpenoids from Aspergillus terreus with BACE1 inhibitory activities” (Chemical Science, 2016)
